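Cells were grown in 96-well plates and exposed to each compound for 48 hours at five concentrations; endpoints were interpolated linearly between bracketing concentrations, or set to the highest concentration if not reached. TGI: concentration producing complete growth inhibition.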
What was measured:
Experiment in all cases: DTP human tumour cell line panel, 48 h
OVCAR-5 ovarian = system: OVCAR-5 ovarian
NCI-H460 lung = system: NCI-H460 lung
RPMI-8226 leukemia = system: RPMI-8226 leukemia
SN12C renal = system: SN12C renal
SW-620 colon = system: SW-620 colon
786-0 renal = system: 786-0 renal
OVCAR-3 ovarian = system: OVCAR-3 ovarian
XF 498 CNS = system: XF 498 CNS
CAKI-1 renal = system: CAKI-1 renal
SF-539 CNS = system: SF-539 CNS
SNB-19 CNS = system: SNB-19 CNS
A498 renal = system: A498 renal
ACHN renal = system: ACHN renal
LOX IMVI melanoma = system: LOX IMVI melanoma
LXFL 529 NSCLC = system: LXFL 529 NSCLC
SNB-75 CNS = system: SNB-75 CNS
UACC-62 melanoma = system: UACC-62 melanoma
OVCAR-4 ovarian = system: OVCAR-4 ovarian
HCT-116 colon = system: HCT-116 colon
MOLT-4 leukemia = system: MOLT-4 leukemia
SK-MEL-2 melanoma = system: SK-MEL-2 melanoma
TK-10 renal = system: TK-10 renal
DMS 114 small cell lung = system: DMS 114 small cell lung
U251 CNS = system: U251 CNS
M19-MEL melanoma = system: M19-MEL melanoma
K-562 leukemia = system: K-562 leukemia
SF-268 CNS = system: SF-268 CNS
IGROV1 ovarian = system: IGROV1 ovarian
KM12 colon = system: KM12 colon
HL-60(TB) leukemia = system: HL-60(TB) leukemia
SF-295 CNS = system: SF-295 CNS
SK-OV-3 ovarian = system: SK-OV-3 ovarian
HOP-18 NSCLC = system: HOP-18 NSCLC
SK-MEL-5 melanoma = system: SK-MEL-5 melanoma
OVCAR-8 ovarian = system: OVCAR-8 ovarian
UO-31 renal = system: UO-31 renal
COLO 205 colon = system: COLO 205 colon
HCC-2998 colon = system: HCC-2998 colon
CCRF-CEM leukemia = system: CCRF-CEM leukemia
HOP-62 NSCLC = system: HOP-62 NSCLC
KM20L2 colon = system: KM20L2 colon
DLD-1 colon = system: DLD-1 colon
HT29 colon = system: HT29 colon
UACC-257 melanoma = system: UACC-257 melanoma
RXF-631 renal = system: RXF-631 renal
HCT-15 colon = system: HCT-15 colon
NCI-H522 lung = system: NCI-H522 lung
NCI-H226 lung = system: NCI-H226 lung
DMS 273 small cell lung = system: DMS 273 small cell lung
SNB-78 CNS = system: SNB-78 CNS
RXF 393 renal = system: RXF 393 renal
M14 melanoma = system: M14 melanoma
MALME-3M melanoma = system: MALME-3M melanoma
SR leukemia = system: SR leukemia
NCI-H23 lung = system: NCI-H23 lung
HOP-92 NSCLC = system: HOP-92 NSCLC
EKVX NSCLC = system: EKVX NSCLC
SK-MEL-28 melanoma = system: SK-MEL-28 melanoma
A549 NSCLC = system: A549 NSCLC

COc1ccc(/C=C/c2cc(OC)cc(OC)c2)cc1
TGI (OVCAR-5 ovarian): > 50.1 µM
TGI (NCI-H460 lung): > 34.4 µM
TGI (RPMI-8226 leukemia): 23.7 µM
TGI (SN12C renal): > 45.4 µM
TGI (SW-620 colon): > 100 µM
TGI (786-0 renal): 59.6 µM
TGI (OVCAR-3 ovarian): 8.78 µM
TGI (XF 498 CNS): 98.9 µM
TGI (CAKI-1 renal): 46.8 µM
TGI (SF-539 CNS): 11 µM
TGI (SNB-19 CNS): > 100 µM
TGI (A498 renal): > 61 µM
TGI (ACHN renal): > 100 µM
TGI (LOX IMVI melanoma): > 100 µM
TGI (LXFL 529 NSCLC): > 100 µM
TGI (SNB-75 CNS): > 35.6 µM
TGI (UACC-62 melanoma): > 100 µM
TGI (OVCAR-4 ovarian): > 100 µM
TGI (HCT-116 colon): > 58 µM
TGI (MOLT-4 leukemia): > 51 µM
TGI (SK-MEL-2 melanoma): > 57 µM
TGI (TK-10 renal): > 100 µM
TGI (DMS 114 small cell lung): 9.91 µM
TGI (U251 CNS): > 59.8 µM
TGI (M19-MEL melanoma): > 100 µM
TGI (K-562 leukemia): > 100 µM
TGI (SF-268 CNS): > 28.2 µM
TGI (IGROV1 ovarian): > 100 µM
TGI (KM12 colon): > 69.1 µM
TGI (HL-60(TB) leukemia): 8.52 µM
TGI (SF-295 CNS): > 31.3 µM
TGI (SK-OV-3 ovarian): 37.5 µM
TGI (HOP-18 NSCLC): > 100 µM
TGI (SK-MEL-5 melanoma): > 100 µM
TGI (OVCAR-8 ovarian): > 100 µM
TGI (UO-31 renal): > 64.2 µM
TGI (COLO 205 colon): 10.7 µM
TGI (HCC-2998 colon): 33.2 µM
TGI (CCRF-CEM leukemia): 36.6 µM
TGI (HOP-62 NSCLC): 32.6 µM
TGI (KM20L2 colon): 11.7 µM
TGI (DLD-1 colon): > 100 µM
TGI (HT29 colon): > 36.6 µM
TGI (UACC-257 melanoma): > 100 µM
TGI (RXF-631 renal): > 53.2 µM
TGI (HCT-15 colon): > 100 µM
TGI (NCI-H522 lung): 11.6 µM
TGI (NCI-H226 lung): > 31.1 µM
TGI (DMS 273 small cell lung): 15.6 µM
TGI (SNB-78 CNS): 8.71 µM
TGI (RXF 393 renal): 10.7 µM
TGI (M14 melanoma): 53.1 µM
TGI (MALME-3M melanoma): > 100 µM
TGI (SR leukemia): > 100 µM
TGI (NCI-H23 lung): > 100 µM
TGI (HOP-92 NSCLC): > 100 µM
TGI (EKVX NSCLC): > 100 µM
TGI (SK-MEL-28 melanoma): 65.7 µM
TGI (A549 NSCLC): > 100 µM

CN(c1nc(=[N+](C)C)ss1)C1CCCCC1
TGI (OVCAR-5 ovarian): > 100 µM
TGI (NCI-H460 lung): > 100 µM
TGI (RPMI-8226 leukemia): > 100 µM
TGI (SN12C renal): > 100 µM
TGI (SW-620 colon): > 100 µM
TGI (786-0 renal): > 100 µM
TGI (XF 498 CNS): > 100 µM
TGI (CAKI-1 renal): > 100 µM
TGI (SF-539 CNS): > 100 µM
TGI (SNB-19 CNS): > 100 µM
TGI (A498 renal): > 100 µM
TGI (ACHN renal): > 100 µM
TGI (LOX IMVI melanoma): > 100 µM
TGI (LXFL 529 NSCLC): > 100 µM
TGI (SNB-75 CNS): > 100 µM
TGI (UACC-62 melanoma): > 100 µM
TGI (OVCAR-4 ovarian): > 100 µM
TGI (HCT-116 colon): > 100 µM
TGI (MOLT-4 leukemia): > 100 µM
TGI (SK-MEL-2 melanoma): > 100 µM
TGI (TK-10 renal): > 100 µM
TGI (DMS 114 small cell lung): > 100 µM
TGI (U251 CNS): > 100 µM
TGI (M19-MEL melanoma): > 100 µM
TGI (K-562 leukemia): > 100 µM
TGI (SF-268 CNS): > 100 µM
TGI (IGROV1 ovarian): > 100 µM
TGI (KM12 colon): > 100 µM
TGI (HL-60(TB) leukemia): > 100 µM
TGI (SF-295 CNS): > 100 µM
TGI (SK-OV-3 ovarian): > 100 µM
TGI (HOP-18 NSCLC): > 100 µM
TGI (SK-MEL-5 melanoma): > 100 µM
TGI (OVCAR-8 ovarian): > 100 µM
TGI (UO-31 renal): > 100 µM
TGI (HCC-2998 colon): > 100 µM
TGI (CCRF-CEM leukemia): > 100 µM
TGI (HOP-62 NSCLC): > 100 µM
TGI (KM20L2 colon): > 100 µM
TGI (DLD-1 colon): > 100 µM
TGI (HT29 colon): > 100 µM
TGI (UACC-257 melanoma): > 100 µM
TGI (RXF-631 renal): > 100 µM
TGI (HCT-15 colon): > 100 µM
TGI (NCI-H522 lung): > 100 µM
TGI (NCI-H226 lung): > 100 µM
TGI (DMS 273 small cell lung): > 100 µM
TGI (SNB-78 CNS): > 100 µM
TGI (RXF 393 renal): > 100 µM
TGI (M14 melanoma): > 100 µM
TGI (MALME-3M melanoma): > 100 µM
TGI (SR leukemia): > 100 µM
TGI (NCI-H23 lung): > 100 µM
TGI (HOP-92 NSCLC): > 100 µM
TGI (EKVX NSCLC): > 100 µM
TGI (SK-MEL-28 melanoma): > 100 µM
TGI (A549 NSCLC): > 100 µM

CCOC(=O)c1sc2c(sc(=O)n2-c2ccccc2)c1O
TGI (OVCAR-5 ovarian): > 100 µM
TGI (NCI-H460 lung): > 100 µM
TGI (SN12C renal): > 100 µM
TGI (786-0 renal): > 100 µM
TGI (OVCAR-3 ovarian): > 100 µM
TGI (XF 498 CNS): > 100 µM
TGI (CAKI-1 renal): > 100 µM
TGI (SF-539 CNS): > 100 µM
TGI (SNB-19 CNS): > 100 µM
TGI (A498 renal): > 100 µM
TGI (ACHN renal): > 100 µM
TGI (LOX IMVI melanoma): > 100 µM
TGI (LXFL 529 NSCLC): > 100 µM
TGI (SNB-75 CNS): > 100 µM
TGI (UACC-62 melanoma): > 100 µM
TGI (OVCAR-4 ovarian): > 100 µM
TGI (HCT-116 colon): > 100 µM
TGI (MOLT-4 leukemia): > 100 µM
TGI (SK-MEL-2 melanoma): > 100 µM
TGI (TK-10 renal): > 100 µM
TGI (DMS 114 small cell lung): > 100 µM
TGI (U251 CNS): > 100 µM
TGI (M19-MEL melanoma): > 100 µM
TGI (K-562 leukemia): > 100 µM
TGI (SF-268 CNS): > 100 µM
TGI (IGROV1 ovarian): > 100 µM
TGI (KM12 colon): > 100 µM
TGI (HL-60(TB) leukemia): > 100 µM
TGI (SF-295 CNS): > 100 µM
TGI (SK-OV-3 ovarian): > 100 µM
TGI (HOP-18 NSCLC): > 100 µM
TGI (SK-MEL-5 melanoma): > 100 µM
TGI (OVCAR-8 ovarian): > 100 µM
TGI (UO-31 renal): > 100 µM
TGI (COLO 205 colon): > 100 µM
TGI (HCC-2998 colon): > 100 µM
TGI (CCRF-CEM leukemia): > 100 µM
TGI (HOP-62 NSCLC): > 100 µM
TGI (KM20L2 colon): > 100 µM
TGI (DLD-1 colon): > 100 µM
TGI (HT29 colon): > 100 µM
TGI (UACC-257 melanoma): > 100 µM
TGI (RXF-631 renal): > 100 µM
TGI (HCT-15 colon): > 100 µM
TGI (NCI-H522 lung): > 100 µM
TGI (NCI-H226 lung): > 100 µM
TGI (DMS 273 small cell lung): > 100 µM
TGI (SNB-78 CNS): > 100 µM
TGI (RXF 393 renal): > 100 µM
TGI (M14 melanoma): > 100 µM
TGI (MALME-3M melanoma): > 100 µM
TGI (SR leukemia): > 100 µM
TGI (NCI-H23 lung): > 100 µM
TGI (HOP-92 NSCLC): > 100 µM
TGI (EKVX NSCLC): > 100 µM
TGI (SK-MEL-28 melanoma): > 100 µM
TGI (A549 NSCLC): > 100 µM
